The source of these data is article PMC5418920 (The Open Medicinal Chemistry Journal, 2017).

A word on the IC50: it is the point on the concentration scale where inhibition reaches its midpoint. High values mean lower potency, low ones higher potency.

This test concerns the target ALR2 (Rattus norvegicus, UniProt P07943). Put plainly: ALR2 enzymatic inhibition, spectrophotometric NADPH oxidation at 340 nm. The format is biochemical.

Compound `COc1ccc(C2(C)CC3(CN(CC(=O)O)C(=O)CO3)c3cc(Br)ccc3O2)cc1` (centres unmarked) [Compound 4, 2-(6-Bromo-2-(4-methoxyphenyl)-2-methyl-5'-oxospiro[chroman-4,2'-morpholin]-4'-yl) acetic acid] displayed an IC50 of 4.97 µM. Moreover, the “fold reduction in ARL2 inhibitory efficacy compared to parent 2” value (IC50 4.97 vs 0.58 μM) is reported as around 8 fold. In the case of `CC1(C)CC2(CN(CC(=O)O)C(=O)O2)c2ccccc2O1` (centres unmarked) [Compound 5, 2-(2,2-Dimethyl-2'-oxospiro[chroman-4,5'-oxazolidin]-3'-yl) acetic acid], it took 42.3 µM to reach half-maximal inhibition (IC50).

The compound `CC1(C)CC2(CN(CC(=O)O)C(=O)O2)c2cc(Br)ccc2O1` (centres unmarked) [Compound 6, 2-(6-Bromo-2,2-dimethyl-2'-oxospiro[chroman-4,5'-oxazolidin]-3'-yl) acetic acid] came in with an IC50 of 17.3 µM. Compared with the last compound, the IC50 is about 2.4-fold lower. Turning to `CC1(C)CC2(CN(CC(=O)O)C(=O)CO2)c2ccccc2O1` (centres unmarked) [Compound 7, 2-(2,2-Dimethyl-5'-oxospiro[chroman-4,2'-morpholin]-4'-yl) acetic acid], the half-inhibitory concentration (IC50) is 2 µM.

In turn, `CC1(C)CC2(CN(CC(=O)O)CCO2)c2cc(Br)ccc2O1` (centres unmarked) [Compound 10, 2-(6-Bromo-2,2-dimethylspiro[chroman-4,2'-morpholin]-4'-yl) acetic acid] showed an IC50 of 4.17 µM. Still for that read-out and setting: the same measure for `COc1cccc(COc2ccccc2C2(C)CN(CC(=O)O)C(=O)O2)c1` (centres unmarked) [Compound 11, 2-(5-(2-((3-Methoxybenzyl)oxy)phenyl)-5-methyl-2-oxooxazolidin-3-yl)acetic acid]: 4.13 µM; for `COc1cc(COc2ccccc2C2(C)CN(CC(=O)O)C(=O)O2)cc(OC)c1OC` (centres unmarked) [Compound 13, 2-(5-Methyl-2-oxo-5-(2-((3,4,5-trimethoxybenzyl)oxy)phenyl)oxazolidin-3-yl)acetic acid]: 3.19 µM.
